Test results taken from patent US11000033B2, “Ketone or oxime compound, and herbicide” (NISSAN CHEMICAL CORPORATION, priority 2014, dated 2021).

Experiments:
Format in all cases: in vivo
transplanted rice plant = assay: Test Example 1: effect on crop, application before weed generation in submerged conditions (symbol a); settings: application herbicide amount 320 g/ha
Procedure, shortened: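 Alluvial soil pots flooded to 4 cm water, sown with Echinochloa oryzacola, Scirpus juncoides and Monochoria vaginalis, then transplanted with 2.5 leaf stage rice seedlings; pre-emergence application. Greenhouse 25° C. to 30° C.; scored 0–5 by herbicidal ratio 3 weeks after application.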

Scirpus juncoides = assay: Test Example 2: herbicidal activity, application during weed generation in submerged conditions (symbol B); settings: Table 23; application herbicide amount 320 g/ha; grade 0-5 by criteria of Test Example 1
Procedure, shortened: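 Compound was applied as a water-diluted emulsion into the standing water of flooded pots (4 cm) once co-sown weeds reached one to two leaves. Greenhouse temperature was 25° C. to 30° C., soil was alluvial, and each species was rated visually after 3 weeks.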

Leptochloa chinensis = assay: Test Example 3: herbicidal effect by foliage application, Wagner pot (symbol D); settings: application herbicide amount 320 g/ha; for D (Leptochloa chinensis) herbicidal effect grade: Table 24
Procedure, shortened: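 In a shallow-flooded alluvial soil system held at 25–30 °C, plants including rice grew for 14 days and were then sprayed over the foliage with emulsion diluted to a fixed herbicide amount. Visual rating followed at 3 weeks.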

Avena fatua = assay: Test Example 4: herbicidal effect by soil treatment (symbol I); settings: for I: Avena fatua, herbicidal effect grade: 320 g/ha; for Herbicidal effect grade, I: Avena fatua: application herbicide amount 320 g/ha
Procedure, shortened: (§1)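 Seeds were sown in sterilized diluvial soil, covered with about 1.5 cm of soil, and the soil surface was sprayed with a water-diluted emulsion of the compound at a predetermined rate. Plants grew in a greenhouse at 25° C. to 30° C.; effects were scored visually 3 weeks after application.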

Alopecurus myosuroides [1] = assay: Test Example 4: herbicidal effect by soil treatment (symbol J); settings: for J: Alopecurus myosuroides, herbicidal effect grade: 320 g/ha; for Herbicidal effect grade, J: Alopecurus myosuroides: application herbicide amount 320 g/ha
Procedure, shortened: as §1

Veronica persica = assay: Test Example 4: herbicidal effect by soil treatment (symbol R); settings: for R: Veronica persica, herbicidal effect grade: 320 g/ha; for Herbicidal effect grade, R: Veronica persica: application herbicide amount 320 g/ha
Procedure, shortened: as §1

wheat [2] = assay: Test Example 4: effect on crop by soil treatment (symbol e); settings: for e: wheat, effect grade on crop: 320 g/ha; for Effect on crop grade, e: wheat: application herbicide amount 320 g/ha
Procedure, shortened: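 Seeds were sown in spots on sterilized diluvial soil in a plastic box and covered with about 1.5 cm of soil. Plants were then grown in a greenhouse at 25° C. to 30° C.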

Digitaria ciliaris = assay: Test Example 5: herbicidal effect by foliage application, plastic box (symbol F); settings: 320 g/ha, 3 weeks after application
Procedure, shortened: (§2)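 Effect is rated 3 weeks after a foliar spray of water-diluted emulsion concentrate at a predetermined herbicide amount. Plants had grown 14 days in a 25° C. to 30° C. greenhouse from seed in sterilized diluvial soil.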

Alopecurus myosuroides [3] = assay: Test Example 5: herbicidal effect by foliage application, plastic box (symbol J); settings: 320 g/ha, 3 weeks after application
Procedure, shortened: as §2

Lolium multiflorum Lam. = assay: Test Example 5: herbicidal effect by foliage application, plastic box (symbol K); settings: 320 g/ha, 3 weeks after application
Procedure, shortened: as §2

corn = assay: Test Example 5: effect on crop by foliage application, plastic box (symbol c); settings: 320 g/ha, 3 weeks after application
Procedure, shortened: (§3)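 Foliage-application test plants come from spot sowing in sterilized diluvial soil under a soil layer of about 1.5 cm, grown at 25° C. to 30° C. in a greenhouse.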

soybean = assay: Test Example 5: effect on crop by foliage application, plastic box (symbol d); settings: 320 g/ha, 3 weeks after application
Procedure, shortened: as §3

wheat [4] = assay: Test Example 5: effect on crop by foliage application, plastic box (symbol e); settings: 320 g/ha, 3 weeks after application
Procedure, shortened: as §3

SMILES | Effect grade on crop, a: transplanted rice plant (transplanted rice plant) | Herbicidal effect grade, B: Scirpus juncoides (Scirpus juncoides) | herbicidal effect on D (Leptochloa chinensis), grade 0-5 (Leptochloa chinensis) | I: Avena fatua, herbicidal effect grade (Avena fatua) | J: Alopecurus myosuroides, herbicidal effect grade (Alopecurus myosuroides [1]) | R: Veronica persica, herbicidal effect grade (Veronica persica) | e: wheat, effect grade on crop (wheat [2]) | F: Digitaria ciliaris, herbicidal effect (criteria 0-5) (Digitaria ciliaris) | J: Alopecurus myosuroides, herbicidal effect (criteria 0-5) (Alopecurus myosuroides [3]) | K: Lolium multiflorum Lam., herbicidal effect (criteria 0-5) (Lolium multiflorum Lam.) | c: corn, effect on crop (criteria 0-5) (corn) | d: soybean, effect on crop (criteria 0-5) (soybean) | e: wheat, effect on crop (criteria 0-5) (wheat [4]) | a (transplanted rice plant) effect on crop grade (transplanted rice plant) | D (Leptochloa chinensis) herbicidal effect grade (Leptochloa chinensis) | Herbicidal effect grade, I: Avena fatua (Avena fatua) | Herbicidal effect grade, J: Alopecurus myosuroides (Alopecurus myosuroides [1]) | Herbicidal effect grade, R: Veronica persica (Veronica persica) | Effect on crop grade, e: wheat (wheat [2]) | F: Digitaria ciliaris, herbicidal effect grade (Digitaria ciliaris) | other results
CON=C(C)CC1CC(OC(=O)N2CCOCC2)=C(c2c(C)cc(C)cc2C)C1=O (stereo not drawn) [1-104] | 3 (Herbicidal ratio of 40% or higher and lower than 70%) | 4 (Herbicidal ratio of 70% or higher and lower than 90%) | 5 (Herbicidal ratio of 90% or more (almost completely withered)) | 3 (Herbicidal ratio of 40% or higher and lower than 70%) | 5 (Herbicidal ratio of 90% or more (almost completely withered)) | 0 (Herbicidal ratio of 5% or lower (almost no effect)) | 1 (Herbicidal ratio of 5% or higher and lower than 20%) | 5 (Herbicidal ratio of 90% or more (almost completely withered)) | 5 (Herbicidal ratio of 90% or more (almost completely withered)) | 5 (Herbicidal ratio of 90% or more (almost completely withered)) | 4 (Herbicidal ratio of 70% or higher and lower than 90%) | 1 (Herbicidal ratio of 5% or higher and lower than 20%) | 0 (Herbicidal ratio of 5% or lower (almost no effect)) |  |  |  |  |  |  |  | 
CCCCCCCCS(=O)(=O)OC1=C(c2c(C)cc(C)cc2C)C(=O)C(CC(C)=NOC)C1 (stereo not drawn) [1-107] | 3 (Herbicidal ratio of 40% or higher and lower than 70%) | 2 (Herbicidal ratio of 20% or higher and lower than 40%) | 5 (Herbicidal ratio of 90% or more (almost completely withered)) | 0 (Herbicidal ratio of 5% or lower (almost no effect)) | 5 (Herbicidal ratio of 90% or more (almost completely withered)) | 0 (Herbicidal ratio of 5% or lower (almost no effect)) | 0 (Herbicidal ratio of 5% or lower (almost no effect)) | 4 (Herbicidal ratio of 70% or higher and lower than 90%) | 5 (Herbicidal ratio of 90% or more (almost completely withered)) | 5 (Herbicidal ratio of 90% or more (almost completely withered)) | 2 (Herbicidal ratio of 20% or higher and lower than 40%) | 3 (Herbicidal ratio of 40% or higher and lower than 70%) | 2 (Herbicidal ratio of 20% or higher and lower than 40%) |  |  |  |  |  |  |  | 
CON=C(C)CC1CC(OC(=O)N(C)C)=C(c2c(C)cc(C)cc2C)C1=O (stereo not drawn) [1-108] | 5 (Herbicidal ratio of 90% or more (almost completely withered)) | 3 (Herbicidal ratio of 40% or higher and lower than 70%) | 5 (Herbicidal ratio of 90% or more (almost completely withered)) | 3 (Herbicidal ratio of 40% or higher and lower than 70%) | 5 (Herbicidal ratio of 90% or more (almost completely withered)) | 0 (Herbicidal ratio of 5% or lower (almost no effect)) | 4 (Herbicidal ratio of 70% or higher and lower than 90%) | 5 (Herbicidal ratio of 90% or more (almost completely withered)) | 5 (Herbicidal ratio of 90% or more (almost completely withered)) | 5 (Herbicidal ratio of 90% or more (almost completely withered)) | 5 (Herbicidal ratio of 90% or more (almost completely withered)) | 3 (Herbicidal ratio of 40% or higher and lower than 70%) | 3 (Herbicidal ratio of 40% or higher and lower than 70%) |  |  |  |  |  |  |  | 
CC(CC1CC(O)=C(c2c(C)cc(C)cc2C)C1=O)=NOCC1CC1(F)F (stereo not drawn) [1-109] | 5 (Herbicidal ratio of 90% or more (almost completely withered)) | 5 (Herbicidal ratio of 90% or more (almost completely withered)) | 5 (Herbicidal ratio of 90% or more (almost completely withered)) | 2 (Herbicidal ratio of 20% or higher and lower than 40%) | 5 (Herbicidal ratio of 90% or more (almost completely withered)) | 2 (Herbicidal ratio of 20% or higher and lower than 40%) | 2 (Herbicidal ratio of 20% or higher and lower than 40%) | 5 (Herbicidal ratio of 90% or more (almost completely withered)) | 5 (Herbicidal ratio of 90% or more (almost completely withered)) | 5 (Herbicidal ratio of 90% or more (almost completely withered)) | 5 (Herbicidal ratio of 90% or more (almost completely withered)) | 0 (Herbicidal ratio of 5% or lower (almost no effect)) | 5 (Herbicidal ratio of 90% or more (almost completely withered)) |  |  |  |  |  |  |  | 
CC#Cc1cc(C)c(C2=C(OC(=O)COc3ccccc3)CC(CC(C)=NOCC(F)(F)F)C2=O)c(C)c1 (stereo not drawn) [9-013] |  | 5 (Herbicidal ratio of 90% or more (almost completely withered)) |  |  |  |  |  |  |  |  |  |  |  | 5 (Herbicidal ratio of 90% or more (almost completely withered)) | 5 (Herbicidal ratio of 90% or more (almost completely withered)) | 5 (Herbicidal ratio of 90% or more (almost completely withered)) | 5 (Herbicidal ratio of 90% or more (almost completely withered)) | 4 (Herbicidal ratio of 70% or higher and lower than 90%) | 4 (Herbicidal ratio of 70% or higher and lower than 90%) | 5 (Herbicidal ratio of 90% or more (almost completely withered)) | J: Alopecurus myosuroides, herbicidal effect grade (Alopecurus myosuroides [3]): 5 (Herbicidal ratio of 90% or more (almost completely withered)); K: Lolium multiflorum Lam., herbicidal effect grade (Lolium multiflorum Lam.): 5 (Herbicidal ratio of 90% or more (almost completely withered)); c: corn, effect on crop grade (corn): 5 (Herbicidal ratio of 90% or more (almost completely withered)); d: soybean, effect on crop grade (soybean): 0 (Herbicidal ratio of 5% or lower (almost no effect)); e: wheat, effect on crop grade (wheat [4]): 4 (Herbicidal ratio of 70% or higher and lower than 90%)
COCCON=C(CC1CC(O)=C(c2c(C)cc(-n3cc(Cl)cn3)cc2C)C1=O)C1CC1 (stereo not drawn) [9-020] |  | 4 (Herbicidal ratio of 70% or higher and lower than 90%) |  |  |  |  |  |  |  |  |  |  |  | 5 (Herbicidal ratio of 90% or more (almost completely withered)) | 5 (Herbicidal ratio of 90% or more (almost completely withered)) | 0 (Herbicidal ratio of 5% or lower (almost no effect)) | 3 (Herbicidal ratio of 40% or higher and lower than 70%) | 0 (Herbicidal ratio of 5% or lower (almost no effect)) | 0 (Herbicidal ratio of 5% or lower (almost no effect)) | 5 (Herbicidal ratio of 90% or more (almost completely withered)) | J: Alopecurus myosuroides, herbicidal effect grade (Alopecurus myosuroides [3]): 5 (Herbicidal ratio of 90% or more (almost completely withered)); K: Lolium multiflorum Lam., herbicidal effect grade (Lolium multiflorum Lam.): 5 (Herbicidal ratio of 90% or more (almost completely withered)); c: corn, effect on crop grade (corn): 5 (Herbicidal ratio of 90% or more (almost completely withered)); d: soybean, effect on crop grade (soybean): 1 (Herbicidal ratio of 5% or higher and lower than 20%); e: wheat, effect on crop grade (wheat [4]): 2 (Herbicidal ratio of 20% or higher and lower than 40%)
